Test results from patent US20200157088A1, “BENZENE FUSED HETEROCYCLIC COMPOUND AND USE THEREOF” (TAIWANJ PHARMACEUTICALS CO., LTD., priority 2017, published 2020).
Where two headings read alike, the source gives them in different places.

Target: T1, autotaxin (Homo sapiens, UniProt Q13822)
T1 construct: purchased Cayman 10803
Experiment: Autotaxin inhibitor screening assay (choline release from LPC)
Type: biochemical
Method: Autotaxin activity was measured by choline release from LPC in presence or absence of compound.
Twenty (20) ng autotaxin (10803, Cayman, MI, USA) was incubated with 100 μM 14:0 LPC (855575P, Avanti, AL, USA) in a final volume of 100 μL buffer containing 50 mM Tris pH 8.0, 0.01% Triton X-100, 50 mM CaCl2, 1 unit/ml choline oxidase, 2 unit/ml HRP, 2 mM homovanilic acid (HVA). The relative amount of released choline was measured by HVA fluorescence in a 96-well plate. Fluorescent intensity was determined at λex/λem=320/450 nm every 60 seconds for 90 minutes with a SpectraMax i3 (Molecular Devices, CA, USA). Data analysis was performed using GraphPad Prism (GraphPad, La Jolla Calif., USA).
Inhibition %=[1−SlopeTA−SlopeBlank)/(Slopevehicle−SlopeBlank)]×100%

[1] = inhibition of autotaxin enzyme activity at 1 μM compound, 100 μM 14:0 LPC, read-out: Inhibition

| SMILES | inhibition at 1 µM [1] [%] | inhibition at 1 µM [%] |
| --- | --- | --- |
| CN(C(=O)OCc1cc(C(F)(F)F)cc(C(F)(F)F)c1)c1noc2ccc(C3=CCN(C(=O)CN4C(=O)CSC4=S)CC3)cc12 [Compound 132] | 50 to 80 | – |
| CCOC(=O)N1CCN(C(=O)CN2CC=C(c3ccc4c(c3)C(N(C)C(=O)OCc3cc(Cl)cc(Cl)c3)CC4)CC2)CC1 (stereo not drawn) [Compound 15] | < 50 | – |
| CCN(C(=O)OCc1cc(Cl)cc(Cl)c1)C1CCc2ccc(C3=CCN(C(=O)CN4C(=O)CSC4=S)CC3)cc21 (stereo not drawn) [Compound 130] | > 80 | – |
| CN(C(=O)CCc1cc(Cl)cc(Cl)c1)C1CCc2ccc(C3=CCN(C(=O)CN4C(=O)CSC4=S)CC3)cc21 (stereo not drawn) [Compound 137] | 50 to 80 | – |
| CN(C(=O)OCc1cc(F)cc(Cl)c1)C1CCc2ccc(C3=CCN(C(=O)CN4C(=O)CSC4=S)CC3)cc21 (stereo not drawn) [Compound 97] | – | > 80 |
| CN(C(=O)CCc1cc(Cl)cc(Cl)c1)C1CCc2ccc(C3=CCN(C(=O)CCS(C)(=O)=O)CC3)cc21 (stereo not drawn) [Compound 138] | 50 to 80 | – |
| CN(c1nc(-c2cc(Cl)cc(Cl)c2)c(C#N)s1)C1CCc2ccc(C3=CCN(CC(=O)N4CC(O)C4)CC3)cc21 (stereo not drawn) [Compound 59] | < 50 | – |
| CN(C(=O)OCc1cc(Cl)cc(Cl)c1)C1CCc2ccc(C3=CCN(C(=O)CN4C(=O)CCC4=O)CC3)cc21 (stereo not drawn) [Compound 26] | < 50 | – |
| CN(C(=O)OCc1cc(Cl)cc(Cl)c1)C1CCc2ccc(C3=CCN(C(=O)CN(C)S(C)(=O)=O)CC3)cc21 (stereo not drawn) [Compound 30] | > 80 | – |
| CN(C(=O)OCc1cc(Cl)cc(Cl)c1)C1CCc2ccc(C3=CCN(C(=O)CS(C)(=O)=O)CC3)cc21 (stereo not drawn) [Compound 22] | > 80 | – |
| CN(C(=O)OCc1cc(Cl)cc(Cl)c1)C1CCc2ccc(C3=CCN(CC(=O)N(C)S(C)(=O)=O)CC3)cc21 (stereo not drawn) [Compound 21] | 50 to 80 | – |
| CN(c1nc(-c2ccc(Cl)cc2)c(C#N)s1)C1CCc2ccc(C3=CCN(CC(=O)N4CC(O)C4)CC3)cc21 (stereo not drawn) [Compound 58, 4-(4-chlorophenyl)-2-((6-(1-(2-(3-hydroxyazetidin-1-yl)-2-oxoethyl)-1,2,3,6-tetrahydropyridin-4-yl)-2,3-dihydro-1H-inden-1-yl)(methyl)amino)thiazole-5-carbonitrile] | < 50 | – |
| CN(C(=O)OCc1cc(Cl)cc(Cl)c1)C1CCc2ccc(C3=CCN(C(=O)CN4CC(O)C4)CC3)cc21 (stereo not drawn) [Compound 24] | < 50 | – |
| CN(C(=O)OCc1cc(Cl)cc(Cl)c1)C1CCc2ccc(C3=CCN(CC(=O)N4CCCC4)CC3)cc21 (stereo not drawn) [Compound 13] | < 50 | – |
| CCN(C(=O)OCc1cc(C(F)(F)F)cc(C(F)(F)F)c1)c1noc2ccc(C3=CCN(C(=O)CN4C(=O)CSC4=S)CC3)cc12 [Compound 133] | 50 to 80 | – |
| Cc1c(N(C)C(=O)OCc2cc(C(F)(F)F)cc(C(F)(F)F)c2)c2cc(C3=CCN(C(=O)CN4C(=O)CSC4=S)CC3)ccc2n1C [Compound 109] | 50 to 80 | – |
| CCC1Cc2ccc(C3=CCN(C(=O)CN4C(=O)CSC4=S)CC3)cc2C1N(C)C(=O)OCc1cc(Cl)cc(Cl)c1 (stereo not drawn) [Compound 119] | 50 to 80 | – |
| CN(C(=O)OCc1cc(Cl)cc(Cl)c1)C1CCc2ccc(N3CCN(C(=O)CN4CCOCC4)CC3)cc21 (stereo not drawn) [Compound 34, 3,5-dichlorobenzyl methyl(6-(4-(2-morpholinoacetyl)piperazin-1-yl)-2,3-dihydro-1H-inden-1-yl)carbamate] | 50 to 80 | – |
| CN(C(=O)OCc1cc(Cl)cc(Cl)c1)C1CCc2ccc(C3=CCN(CC(=O)N4CC(O)C4)CC3)cc21 (stereo not drawn) [Compound 8, 3,5-dichlorobenzyl(6-(1-(2-(3-hydroxyazetidin-1-yl)-2-oxoethyl)-1,2,3,6-tetrahydropyridin-4-yl)-2,3-dihydro-1H-inden-1-yl)(methyl)carbamate] | 50 to 80 | – |
| CN(C(=O)OCc1cc(Cl)cc(Cl)c1)c1noc2ccc(C3=CCN(C(=O)CN4C(=O)CSC4=S)CC3)cc12 [Compound 128] | 50 to 80 | – |
| CN(C(=O)OCc1cc(Cl)cc(Cl)c1)C1CCc2ccc(C3=CCN(CC(=O)N4CCCC(O)C4)CC3)cc21 (stereo not drawn) [Compound 19] | < 50 | – |
| CN(c1nc(-c2ccc(Cl)cc2)c(C#N)s1)C1CCc2ccc(N3CCN(CC(=O)N4CC(O)C4)CC3)cc21 (stereo not drawn) [Compound 52] | < 50 | – |
| CCN(C(=O)OCc1cc(C(F)(F)F)cc(C(F)(F)F)c1)c1c(C)oc2ccc(C3=CCN(C(=O)CN4C(=O)CSC4=S)CC3)cc12 [Compound 105] | > 80 | – |
| CN(C(=O)OCc1cc(Cl)cc(Cl)c1)C1CCc2ccc(N3CCN(C(=O)CS(C)(=O)=O)CC3)cc21 (stereo not drawn) [Compound 37] | 50 to 80 | – |
| CN(C(=O)OCc1cc(Cl)cc(Cl)c1)C1CCc2ccc(C3=CCN(CC(=O)NS(C)(=O)=O)CC3)cc21 (stereo not drawn) [Compound 20] | 50 to 80 | – |
| Cc1oc2ccc(C3=CCN(C(=O)CS(C)(=O)=O)CC3)cc2c1N(C)C(=O)OCc1cc(C(F)(F)F)cc(C(F)(F)F)c1 [Compound 103] | 50 to 80 | – |

| SMILES | inhibition at 1 µM [1] [%] | inhibition at 1 µM [%] |
| --- | --- | --- |
| CN(c1nc(-c2ccc(Cl)cc2)c(C#N)s1)C1CCCc2ccc(N3CCN(CC(=O)N4CC(O)C4)CC3)cc21 (stereo not drawn) [Compound 51] | – | < 50 |
| CN(C(=O)OCc1cc(Cl)cc(Cl)c1)C1CCc2ccc(C3=CCN(CC(=O)N4CCC(=O)CC4)CC3)cc21 (stereo not drawn) [Compound 11] | – | 50 to 80 |
| CCC1Oc2ccc(C3=CCN(C(=O)CN4CCOCC4)CC3)cc2C1N(C)C(=O)OCc1cc(Cl)cc(Cl)c1 (stereo not drawn) [Compound 120] | – | < 50 |
| CN(C(=O)OCc1cc(Cl)cc(Cl)c1)C1CCc2ccc(C3=CCN(CC(=O)N4CCOCC4)CC3)cc21 (stereo not drawn) [Compound 10] | 50 to 80 | – |
| O=C(Nc1noc2ccc(C3=CCN(C(=O)CN4C(=O)CSC4=S)CC3)cc12)OCc1cc(Cl)cc(Cl)c1 [Compound 127] | 50 to 80 | – |
| CCC1Cc2ccc(C3=CCN(CC(=O)N4CC(O)C4)CC3)cc2C1N(C)c1nc(-c2ccc(Cl)cc2)c(C#N)s1 (stereo not drawn) [Compound 60] | < 50 | – |
| CN(C(=O)OCc1cc(Cl)cc(Cl)c1)c1coc2ccc(C3=CCN(C(=O)CN4C(=O)CSC4=S)CC3)cc12 [Compound 69, 3,5-dichlorobenzyl methyl(5-(1-(2-(4-oxo-2-thioxothiazolidin-3-yl)acetyl)-1,2,3,6-tetrahydropyridin-4-yl)benzofuran-3-yl)carbamate] | > 80 | – |
| CN(CCOc1ccc(F)cc1F)C1CCc2ccc(N3CCN(CC(=O)N4CC(O)C4)CC3)cc21 (stereo not drawn) [Compound 73] | < 50 | – |
| CN(C(=O)OCc1cc(Cl)cc(Cl)c1)C1CCc2ccc(C3=CCN(CC(=O)N4CCN(S(C)(=O)=O)CC4)CC3)cc21 (stereo not drawn) [Compound 17] | 50 to 80 | – |
| CN(CCOc1ccc(F)cc1F)C1CCCc2ccc(N3CCN(CC(=O)N4CC(O)C4)CC3)cc21 (stereo not drawn) [Compound 74] | < 50 | – |
| Cc1oc2ccc(C3=CCN(C(=O)CN4C(=O)CSC4=S)CC3)cc2c1N(C)C(=O)OCc1cc(C(F)(F)F)cc(C(F)(F)F)c1 [Compound 102] | > 80 | – |
| CN(C(=O)OCc1cc(Cl)cc(Cl)c1)C1CCc2ccc(C3=CCN(C(=O)CNS(C)(=O)=O)CC3)cc21 (stereo not drawn) [Compound 29] | > 80 | – |
| CN(C(=O)OCc1cc(Cl)cc(C(F)(F)F)c1)C1CCc2ccc(C3=CCN(C(=O)CN4C(=O)CSC4=S)CC3)cc21 (stereo not drawn) [Compound 93] | > 80 | – |
| CN(C(=O)OCc1cc(Cl)cc(Cl)c1)C1CCc2ccc(C3=CCN(C(=O)CN4C(=O)CSC4=S)CC3)cc21 (stereo not drawn) [Compound 9, 3,5-dichlorobenzyl methyl(6-(1-(2-(4-oxo-2-thioxothiazolidin-3-yl)acetyl)-1,2,3,6-tetrahydropyridin-4-yl)-2,3-dihydro-1H-inden-1-yl)carbamate] | > 80 | – |
| CN(C(=O)OCc1cc(Cl)cc(Cl)c1)C1CCc2ccc(C3=CCN(C(=O)CN4CCOCC4)CC3)cc21 (stereo not drawn) [Compound 18] | > 80 | – |
| CN(C(=O)OCc1cc(Cl)cc(Cl)c1)c1csc2ccc(C3=CCN(C(=O)CN4C(=O)CSC4=S)CC3)cc12 [Compound 85] | > 80 | – |
| CN(c1nc(-c2ccc(Cl)cc2)c(C#N)s1)C1CCc2ccc(N3CCN(C(=O)CN4C(=O)CSC4=S)CC3)cc21 (stereo not drawn) [Compound 54] | < 50 | – |
| CN(C(=O)OCc1cc(Cl)cc(Cl)c1)c1coc2ccc(N3CCN(C(=O)CN4C(=O)CSC4=S)CC3)cc12 [Compound 66, 3,5-dichlorobenzyl methyl(5-(4-(2-(4-oxo-2-thioxothiazolidin-3-yl)acetyl)piperazin-1-yl)benzofuran-3-yl)carbamate] | > 80 | – |
| CN(c1nc(-c2ccccc2)cs1)C1CCc2ccc(N3CCN(CC(=O)N4CC(O)C4)CC3)cc21 (stereo not drawn) [Compound 44] | – | < 50 |
| CCC1Cc2ccc(C3=CCN(C(=O)CS(C)(=O)=O)CC3)cc2C1N(C)C(=O)OCc1cc(Cl)cc(Cl)c1 (stereo not drawn) [Compound 121] | < 50 | – |
| CN(C(=O)OCc1cc(Cl)cc(Cl)c1)C1CCc2ccc(N3CCN(C(=O)CN4C(=O)CSC4=S)CC3)cc21 (stereo not drawn) [Compound 36] | > 80 | – |
| CN(C(=O)OCc1cc(Cl)ccc1Cl)C1CCc2ccc(C3=CCN(C(=O)CN4C(=O)CSC4=S)CC3)cc21 (stereo not drawn) [Compound 96] | > 80 | – |
| Cc1cc(Cl)cc(COC(=O)N(C)C2CCc3ccc(C4=CCN(C(=O)CN5C(=O)CSC5=S)CC4)cc32)c1 (stereo not drawn) [Compound 92] | – | > 80 |
| CN(C(=O)OCc1cc(Cl)cc(Cl)c1)C1CCCc2ccc(N3CCN(CC(=O)N4CC(O)C4)CC3)cc21 (stereo not drawn) [Compound 38] | < 50 | – |
| CN(c1nc(-c2ccc(F)cc2)c(C#N)s1)C1CCc2ccc(N3CCN(CC(=O)N4CC(O)C4)CC3)cc21 (stereo not drawn) [Compound 50, 4-(4-fluorophenyl)-2-((6-(4-(2-(3-hydroxyazetidin-1-yl)-2-oxoethyl)piperazin-1-yl)-2,3-dihydro-1H-inden-1-yl)(methyl)amino)thiazole-5-carbonitrile] | < 50 | – |
